In patent US20040197346A1, “Materials and methods for intracellular transport and their uses” (Marie Curie Cancer Care, priority 1997, published 2004):

Tests used:
[1] = Transport activity of VP22 sub-sequences; format: cell-based; details: sub-sequences of full HSV1 VP22 sequence (1-301)
Cos-1 cells = experiment: Delivery by intercellular trafficking, immunofluorescence of transfected Cos-1 cell monolayers; format: cell-based; details: transfected Cos-1 cells, 48 h, methanol-fixed, anti-VP22/-p53/-epitope immunofluorescence
Method: Cos-1 cells were grown in Dulbecco's modified MEM supplemented with 10% new born calf serum at 37° C. with 5% CO2.
Transfections were performed using the BES/CaCl2 method (Elliott and O'Hare, 1997) with 200 ng test plasmid with 1800 ng pUB19. Transfections were allowed to proceed for 48 h at which point the monolayers were harvested for immunofluorescence or western blot analysis.
Cell monolayers on coverslips were fixed with 100% methanol for 15 mins at room temperature and labelled as described in Elliott and O'Hare (1997). All antibodies were diluted in PBS+10% serum. VP22 was detected using a rabbit polyclonal antibody AGV30 (1:500), p53 was detected using a mouse monoclonal antibody DO-1 (Santa-Cruz Ltd), the CMV epitope was detected using a mouse monoclonal antibody CMV. LNA (Capricorn Ltd). Images were obtained using a Bio-Rad MRC600 confocal microscope.
The VP22-p53 fusion protein construct was generated by cloning a full length p53 PCR fragment C-terminal to VP22 into a unique Bam site, keeping both VP22 and the CMV epitope in frame.
We constructed an epitope-tagged full length in-frame VP22-p53 fusion protein construct (FIG. 2). This vector generates a fusion protein of approx 90 kDa when expressed in Cos-1 cells, with very little protein degradation as judged by western blot analysis (FIG. 3). […]

Substance | transport activity [1] | delivery by intercellular trafficking (spread into nuclei of neighbouring non-expressing cells) (Cos-1 cells)
aa 60-301: polypeptide corresponding to aminoacids 60-301 of the full HSV1 VP22 sequence (1-301) | transport activity is present | –
VP22: HSV-1 virion protein VP22, 38 kDa, with intercellular trafficking mechanism | – | clear spread to the nuclei of adjacent cells
aa 159-301: polypeptide corresponding to aminoacids 159-301 of the full HSV1 VP22 sequence (1-301) | transport activity is present | –
aa 175-301: polypeptide consisting of aa 175-301 of the VP22 sequence | markedly less transport activity | –
deletion of the 34-aminoacid C-terminal sequence from VP22 of HSV1: VP22 of HSV1 lacking its 34-aminoacid C-terminal sequence | abolishes transport-activity | –
